In PMC7408547, “Bivalent Inhibitor with Selectivity for Trimeric MMP-9 Amplifies Neutrophil Chemotaxis and Enables Functional Studies on MMP-9 Proteoforms” (Cells, 2020):

Tested on: secretions of fMLF stimulated human granulocytes
Test: Gelatinolysis in secretions of fMLF stimulated human granulocytes
Assay type: biochemical
Settings: neutrophil elastase inhibitor 20 µM; depending on the donor (n = 4)
Method: To determine the inhibition of gelatinolytic activity, we used a previously optimized gelatin degradation assay. Activated MMP-9, activated MMP-2, neutrophil elastase or supernatants of stimulated neutrophils, were incubated with different concentrations of inhibitors and incubated for 30 min at 37 °C. Next, dye-quenched gelatin (DQ™-gelatin, Invitrogen, Carlsbad, CA, USA) was added at a final concentration of 2.5 µg/mL and the increase in fluorescence over time was measured with the CLARIOstar microplate reader (BMG Labtech, Ortenberg, Germany). For other MMPs, the OmniMMP substrate peptide (Mca-PLGL-Dpa-AR-NH2, cat. no. BML-P126-0001, Enzo Life Sciences, Farmingdale, NY, USA) was used at a final concentration of 2.5 µg/mL. For ADAM17 the fluorogenic peptide Mca-PLAQAV-Dpa-RSSSR-NH2 (ES003, R & D systems, Minneapolis, MO, USA) and for neutrophil elastase the fluorogenic substrate MeOSuc-AAPV-AMC (cat. no. 324740, Merck Millipore, Darmstadt, Germany) were used. Proteolytic activity was determined by linear regression of the fluorescence curve and the percentage inhibition was calculated through comparison with the positive control (no inhibitors). When testing supernatants from human neutrophils, the assay was performed in the presence of 20 µM neutrophil elastase inhibitor (Elastase Inhibitor IV, Calbiochem, Darmstadt, Germany).
Neutrophils were isolated from fresh blood from healthy donors, via density gradient centrifugation as described. To obtain neutrophil degranulate, neutrophils were suspended in degranulation buffer (120 mM NaCl, 15 mM CaCl2, 20 mM Tris/HCl pH 7.5) at a concentration of 10^7 cells/mL and degranulation was induced by incubating neutrophils with N-formyl-methionyl-leucyl-phenylalanine (fMLF) (final concentration 0.5 µM) for 20 min at 37 °C as previously described. Next, the supernatant was collected by centrifugation. For fresh blood donations, all subjects gave written informed consent in accordance with the Declaration of Helsinki.

Cc1cccc(C(=O)n2nc(C#N)c3ccccc32)c1 [neutrophil elastase inhibitor, reference compound]
percentage of gelatinolytic activity inhibited: 84–97%
